# Measurements: patent US5472951A, “Stabilizer for phospholipid vesicles” (Chiba Flour Milling Co., Ltd., priority 1992, dated 1995)
# Tests used:
# [1] = rat, in vivo
# [2] = change of turbidity at 500 nm with time on standing at room temperature (FIG. 1); format: physicochemical; details: 0.5% by weight
# Protocol: The dispersion stability of the vesicle is evaluated by measuring the change with time of the absorbance (turbidity) with a spectrophotometer at a wavelength of 500 to 800 nm of the gel-filtered dispersion which is left standing at room temperature. Otherwise, the dispersion stability of the vesicle can be measured by the viscosity of the vesicle dispersion with a rotating viscometer, or microscopic observation by electron microscopy.
# The ability of the oligosaccharide lipid of the present invention, namely of MPDSG, for stabilizing a vesicle was evaluated as follows. 3 mg of MPDSG and 100 mg of dipalmitoyl phosphatidylcholine (hereinafter referred to "DPPC") as a phospholipid were dissolved in methanol. The methanol was evaporated by use of a rotary evaporator to form a thin film on the inside wall of an eggplant shape flask. Thereto, 5 ml of pure water and several glass beads were added, and the content of the flask was agitated at 60° C. by means of a vortex mixer to form a whitish turbid liquid. This whitish turbid liquid was treated with an extruder. […]
# (§1) The stability of the vesicle dispersion which had been passed through the 0.05 μm filter was evaluated by measuring the change of absorbance (turbidity) at 500 nm with time on standing at room temperature by means of a UV-visible light spectrophotometer.
# [3] = introduction ratio into mixed lipid vesicles; format: physicochemical; details: DPPC:cholesterol:distearyl phosphatidic acid:MPDSG 10:9:0.9:0.5
# Protocol: (§2) The ratio of introduction of the stabilizer into the vesicles is determined by treating the dispersion of the vesicles by gel filtration or ultracentrifuge to remove the superfluous stabilizer which has not been introduced into the vesicles, and quantitatively determining saccharide in respective fractions by a phenol-sulfuric acid method. The stabilizer of the present invention, when employed in an amount of from 2 to 10 mol %, is introduced into the vesicles in a ratio of 90% or more.
# The effect of the LPMS of the present invention on stabilization of vesicles was evaluated as follows. A powdery lipid mixture containing LPMS was prepared from dimyristoyl phosphatidylcholine, cholesterol, myristic acid, and LPMS (in molar ratio of 7:7:2:0.3) was prepared by freeze-drying. 100 ml of saline was added to 10 g of the above powdery lipid mixture, and the mixture was stirred at 4° C. for 24 hours to prepare a liquid dispersion. […] The introduction ratio of the LPMS was 85% according to saccharide determination of the supernatant liquid after centrifugation.
# 500 mg of a powdery lipid mixture containing MPDSG of the present invention was prepared from DPPC, cholesterol, distearyl phosphatidic acid, and MPDSG (in molar ratio of 10:9:0.9:0.5) was prepared by freeze-drying from benzene. […]
# [4] = particle diameter of modified vesicles; format: physicochemical
# [5] = introduction ratio into the vesicle (phenol-sulfuric acid method); format: physicochemical; details: 3 mg MPDSG per 100 mg DPPC; dispersion diluted to 0.5% by weight, gel filtration
# Protocol: as §2, §1
# 2.4 mg of DOMG prepared in the same manner as in Example 11 was dissolved in 1 ml of chloroform. This solution was mixed with a solution of 100 mg of DPPC in 5 ml of chloroform, thereby DOMG being 2 mol % of DPPC. The solution mixture was evaporated by means of an evaporator to form a thin film on the inside wall of an eggplant-shape flask. Then 10 ml of pure water was added thereto so as to obtain a concentration of 1.0% by weight of the vesicles. The mixture was stirred with glass beads by means of a vortex mixer, and subsequently treated by an extruder to prepare a dispersion of DOMG-modified DPPC vesicles having controlled diameters of particles. A portion of the resulting dispersion was diluted to a fivefold volume with pure water to prepare a dispersion having vesicle concentration of 0.2% by weight.
# The two dispersions of the DOMG-modified vesicles having concentrations of 1.0% by weight and 0.2% by weight were left standing at 4° C. for 24 hours, and were ultracentrifuged (300000 G, 60 minutes). The free DOMG in the supernatant was determined by a phenol-sulfuric acid method, and therefrom the ratio of introduction DOMG to the vesicles was calculated.
# As the results, the introduction ratios were 94.3%, and 77.0% respectively at the vesicle concentrations of 1.0% by weight and 0.2% by weight. The results are shown in Table 4 together with the results of Comparative Examples 6 and 7 described later in which an oligosaccharide derivative was employed.
# [6] = test system: washed human RBC (red blood cell); details: washed red blood cells, 2 h, pH 7.4
# [7] = viscosity of vesicle dispersion on addition of calcium ion (rotating viscometer); format: physicochemical; details: 5 mM calcium chloride
# Protocol: The stability of the vesicles was evaluated as below. The precipitate of the vesicles prepared by centrifuge was dispersed again into saline by a vortex mixer. To this sample, calcium chloride (as calcium ion) was added to be 5 mM, and the viscosity of the dispersion was measured with a rotating viscometer (Vismetron VS-AK). The viscosity of 5 cp was not changed by addition of the calcium ion.
# To this dispersion, calcium chloride (as calcium ion) was added to be 5 mM, and the viscosity of the dispersion was measured with a rotating viscometer (Vismetron VS-AK).
# To this dispersion, calcium chloride (as calcium ion) was added to be 5 mM, and the viscosity of the dispersion was measured with a rotating viscometer (Vismetron VS-AK). The viscosity of 5 cp was not changed by addition of the calcium ion. On the contrary, the dispersion of the vesicles prepared from powdery lipid mixture not containing DACOA (DPPC:cholesterol:distearylphosphatidic acid=10:9:0.9 in molar ratio) aggregated immediately on addition of calcium ion because of negative charge on the surface of the vesicle, causing the viscosity rise up to 11 cp.
# The stability of the dispersion of the DOLG-modified vesicles having adjusted particle diameters was evaluated by addition of 5 mM calcium chloride and observing the viscosity change. The viscosity was measured at 37° C. by a rotating viscometer. […] On the contrary, a dispersion of unmodified vesicles prepared from a powdery lipid mixture containing no DOLG (DPPC:cholesterol:stearic acid=7:7:2 in molar ratio) caused immediate aggregation of the vesicles on addition of calcium ion in the same manner as above because of the negative charge on the surface of the vesicle, and the viscosity increased up to 11 cp. Accordingly, the sufficient effect of the DOLG, a vesicle stabilizer of the present invention, was confirmed in inhibiting the aggregation of vesicles by calcium ion.
substance,measurement,setting,value
maltopentaose distearyl glycerol [MPDSG],average half-life from the blood stream,[1],38 h
same,inhibition of aggregation (in words),[2],"little turbidity increase later, showing the inhibition of the aggregation"
same,turbidity rise in comparison with that of the unmodified vesicle,[2],about 7%
same,introduction ratio,[3],98%
same,average diameter,"[4]; DPPC vesicle, 0.05 μm extruder, particle size analyzer",57±12 nm
same,average diameter,"[4]; DPPC vesicle, 0.05 μm extruder, transmission electron microscope with negative stain",55±10 nm
same,average particle diameter,[4]; hemoglobin-enclosing vesicles after 0.2 μm extrusion and gel filtration,203±50 nm
same,average diameter,"[4]; hemoglobin-enclosing vesicles, microfluidizer, before 0.2 μm extrusion",300±98 nm
same,average particle diameter,"[4]; mixed lipid vesicles, 0.2 μm filter by extruder",200 nm
same,introduction ratio into the vesicle,[5],99%
same,hemolysis,[6],5%
same,inhibition of aggregation of vesicles by calcium ion (in words),[7],inhibited nearly completely
same,viscosity change on addition of calcium ion (in words),[7],not changed
same,viscosity of the dispersion with calcium ion,[7]; Vismetron VS-AK,5 cp
